Legend:
recombinant human SK = molecular target: T1, recombinant human SK (Homo sapiens, UniProt Q9NYA1); assay: Recombinant human SK activity assay ([3H]sphingosine to [3H]S1P); format: biochemical; conditions: Human SK incubated with 6 μg/mL of compound; percentage of SK activity inhibited
T1 construct: GST (glutathione-S-transferase) (N); made in house; host or cells: bacteria (pGEX bacterial expression vector)
Procedure: SK activity is measured by incubation of the recombinant SK with [^3H]sphingosine and 1 mM ATP under defined conditions, followed by extraction of the assay mixture with chloroform:methanol under basic conditions. […] Radioactivity in aliquots of the aqueous phase is then quantified as a measure of [^3H]S1P formation.
Human SK was incubated with 6 μg/mL of the indicated compounds, and then assayed for activity as described above. Values in the column labeled “Recombinant SK (% inhibition)” represent the percentage of SK activity that was inhibited. MDA-MB-231 cells were incubated with 20 μg/mL of the indicated compounds and then assayed for endogenous SK activity as indicated above. Values in the column labeled “Cellular S1P (% inhibition)” represent the percentage of S1P production that was inhibited. Additionally, MDA-MB-231 cells were treated with varying concentration of certain compounds and the amount of S1P produced by the cells was determined. Values in the column labeled “Cellular S1P IC50 (μM)” represent the concentration of compound required to inhibit the production of S1P by 50%. ND=not determined.

[1] = system: endogenous SK activity in MDA-MB-231 cells; assay: Cellular S1P production (endogenous SK activity) in MDA-MB-231 cells; format: cell-based; conditions: Homo sapiens; for inhibition at 20 µg/mL: MDA-MB-231, MDA-MB-231 cells incubated with 20 μg/mL of compound, percentage of S1P production inhibited; for IC50: MDA-MB-231 cells, varying concentrations, concentration inhibiting S1P production by 50%
Summary of the method: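 MDA-MB-231 cells treated with 20 μg/mL compound and assayed for endogenous SK activity, reported as % inhibition of S1P production. For IC50, cells received varying compound concentrations and S1P produced was measured; IC50 is the concentration giving 50% inhibition.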

T1 sequence (Q9NYA1 whole entry): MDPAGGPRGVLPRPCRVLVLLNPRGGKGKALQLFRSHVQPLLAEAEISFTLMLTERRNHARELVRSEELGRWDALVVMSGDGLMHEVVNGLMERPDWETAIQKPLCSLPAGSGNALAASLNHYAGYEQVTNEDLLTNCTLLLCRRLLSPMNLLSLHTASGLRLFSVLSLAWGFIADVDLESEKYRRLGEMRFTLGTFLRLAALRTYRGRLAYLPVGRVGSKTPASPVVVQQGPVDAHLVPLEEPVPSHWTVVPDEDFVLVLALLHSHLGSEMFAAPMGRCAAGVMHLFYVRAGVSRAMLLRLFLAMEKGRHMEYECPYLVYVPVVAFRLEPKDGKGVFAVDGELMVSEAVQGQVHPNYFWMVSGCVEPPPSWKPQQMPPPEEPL

| Structure (SMILES) | inhibition at 6 µg/mL (recombinant human SK) [%] | inhibition at 20 µg/mL [1] [%] | IC50 [1] [µM] |
| --- | --- | --- | --- |
| O=C(Nc1ccc(O)cc1)C12CC3CC(C1)CC(c1ccc(Cl)cc1)(C3)C2 [A6, 3-(4-Chloro-phenyl)-adamantane-1-carboxylic acid (4-hydroxy-phenyl)-amide] | 72 | 90 | 15 |
| O=C(Nc1ccccc1)C12CC3CC(C1)CC(c1ccc(Cl)cc1)(C3)C2 [A4, 3-(4-Chloro-phenyl)-adamantane-1-carboxylic acid phenylamide] | 44 | 14 |  |
| CC(C)NC(=O)C12CC3CC(C1)CC(c1ccc(Cl)cc1)(C3)C2 [A1, 3-(4-Chloro-phenyl)-adamantane-1-carboxylic acid isopropylamide] | 38 | 0 |  |
| O=C(NCCc1ccccc1)C12CC3CC(C1)CC(c1ccc(Cl)cc1)(C3)C2 [A37, 3-(4-Chloro-phenyl)-adamantane-1-carboxylic acid phenethyl-amide] | 24 | 36 |  |
| CN1CCN(NC(=O)C23CC4CC(C2)CC(c2ccc(Cl)cc2)(C4)C3)CC1 [A52, 3-(4-Chloro-phenyl)-adamantane-1-carboxylic acid (4-methyl-piperazin-1-yl)-amide] | 54 | 61 |  |
| O=C(NCCc1ccc(O)c(O)c1)C12CC3CC(CC(C3)C1)C2 [A43, Adamantane-1-carboxylic acid [2-(3,4-dihydroxy-phenyl)-ethyl]-amide] | 0 | 0 |  |
| CN1CCCC1CCNC(=O)C12CC3CC(C1)CC(c1ccc(Cl)cc1)(C3)C2 (stereo not drawn) [A57, 3-(4-Chloro-phenyl)-adamantane-1-carboxylic acid [2-(1-methyl-pyrrolidin-2-yl)-ethyl]-amide] | 30 | 83 | 60 |
| CC(NC(=O)Nc1ccc(Cl)c(C(F)(F)F)c1)C12CC3CC(CC(c4ccc(Cl)cc4)(C3)C1)C2 (stereo not drawn) [A118, 1-{1-[3-(4-Chloro-phenyl)-adamantan-1-yl]-ethyl}-3-(4-chloro-3-trifluoromethyl-phenyl)-urea] | 77 | 5 |  |
| Clc1ccc(-c2cnc(NCC34CC5CC(C3)CC(c3ccc(Cl)cc3)(C5)C4)s2)cc1 [A90, [3-(4-Chloro-phenyl)-adamantan-1-ylmethyl]-[5-(4-chloro-phenyl)-thiazol-2-yl]-amine] | 26 | 16 |  |
| O=C(Nc1nc2cc(Cl)ccc2o1)C12CC3CC(C1)CC(c1ccc(Cl)cc1)(C3)C2 [A72, 3-(4-Chloro-phenyl)-adamantane-1-carboxylic acid (5-chloro-benzooxazol-2-yl)-amide] | 14 | 1 |  |
| O=C(Nc1nc2ccccc2s1)C12CC3CC(C1)CC(c1ccc(Cl)cc1)(C3)C2 [A71, 3-(4-Chloro-phenyl)-adamantane-1-carboxylic acid benzothiazol-2-ylamide] | 27 | 0 |  |
| CCn1c2ccccc2c2cc(NC(C)C34CC5CC(CC(c6ccc(Cl)cc6)(C5)C3)C4)ccc21 (stereo not drawn) [A114, {1-[3-(4-Chloro-phenyl)-adamantan-1-yl]-ethyl}-(9-ethyl-9H-carbazol-3-yl)-amine] | 33 | 46 | 51 |
| Clc1ccc(C23CC4CC(CC(CNCCN5CCOCC5)(C4)C2)C3)cc1 [A87, [3-(4-Chloro-phenyl)-adamantan-1-ylmethyl]-(2-morpholin-4-yl-ethyl)-amine] | 75 | 55 | 64 |
| CN1CCC(NC(=O)C23CC4CC(C2)CC(c2ccc(Cl)cc2)(C4)C3)CC1 [A51, 3-(4-Chloro-phenyl)-adamantane-1-carboxylic acid (1-methyl-piperidin-4-yl)-amide] | 84 | 88 | 25 |
